l = locked nucleic acid (LNA); d = 2'-deoxy (DNA)
Assays:
Assay type in all cases: cell-based, human
[1] = tested on: hCD39 mRNA; experiment: IC50 determination / concentration-dependent hCD39 mRNA knockdown in HDLM-2 cells; details: for mRNA inhibition: HDLM-2, 3 days; for IC50: HDLM-2 cells, hCD39 mRNA, 3 days
Protocol: HDLM-2 cells were treated for 3 days with the indicated concentration of the respective antisense oligonucleotide. Residual hCD39 expression is depicted compared to untreated control cells. hCD39 mRNA expression values were normalized to expression of the housekeeping gene HPRT1.
The antisense oligonucleotide A04040H (SEQ ID No. 3) that had shown potent activity in the first and second screening round was used as reference. HDLM-2 cells treated for 3 days with the indicated concentrations of the respective antisense oligonucleotide. hCD39 mRNA expression values were normalized to expression of the housekeeping gene HPRT1. Residual hCD39 mRNA expression relative to untreated cells (set as 100) is depicted. Depicted is the mean of triplicate wells+/−SD.
In a second experiment the concentration-dependency of effects and the IC50 values of hCD39 antisense oligonucleotides A04010H (SEQ ID No.14), A04016H (SEQ ID No.20), A04017H (SEQ ID No.21), A04020H (SEQ ID No. 24) and A04026H (SEQ ID No.30) were tested. […] HDLM-2 cells were treated with titrated amounts of the respective antisense oligonucleotide (concentrations: 10 μM, 3.3 μM, 1.1 μM, 370 nM, 120 nM, 41 nM, 14 nM, 4.5 nM). hCD39 mRNA expression was analyzed after three days of treatment. FIG. 5 and Table 9 depicts the concentration-dependent reduction of hCD39 mRNA expression by the selected hCD39 antisense oligonucleotides.
The hCD39 antisense oligonucleotides A04051H (SEQ ID No.88), A04052H (SEQ ID No.89), A04053H ([…]), A04056H (SEQ ID No.92), A04059H (SEQ ID No.94), A04060H (SEQ ID No.95), and A04061H (SEQ ID No.96) had shown potent single-dose activity in both HDLM-2 and A-172 cells. […] The antisense oligonucleotide A04040H that had shown potent activity in the first screening round was used as reference. hCD39 mRNA expression was analyzed after 3 days of treatment. FIG. 7 depicts the concentration-dependent reduction of hCD39 expression by hCD39 antisense oligonucleotides.

[2] = tested on: hCD39 mRNA; experiment: hCD39 mRNA knockdown efficacy screen in HDLM-2 cells (single dose, gymnotic delivery, QuantiGene Singleplex); design: key to Relative hCD39 mRNA expression (compared to non-treated cells): *: values are below detection limit; details: 10 μM, 3 days; for Mean hCD39 mRNA expression normalized to HPRT1 relative to untreated control = 1: first screening round; for Relative hCD39 mRNA expression (compared to non-treated cells): second screening round, normalized to HPRT1; for Residual hCD39 mRNA expression relative to untreated cells (set as 1): third screening round
Protocol: (§1) FIGS. 2A to 2D depict hCD39 mRNA knockdown efficacy of hCD39 antisense oligonucleotides in human cancer cell lines HDLM-2 (human Hodgkin Lymphoma) in a first and second screening round (FIGS. 2A-1 and 2A-2) and 2B-1 and 2B-2 and A-172 (human glioblastoma) in a first and second screening round (FIGS. 2C-1 and 2C-2) and 2D-1 and 2D-2. HDLM-2 and A-172 cells were treated for 3 days with 10 μM of the respective antisense oligonucleotide. As negative control, cells were treated with neg1, an antisense oligonucleotide having the sequence CGTTTAGGCTATGTACTT (SEQ ID NO:99) (described in WO2014154843 A1). Residual hCD39 mRNA expression relative to untreated cells is depicted. Expression values were normalized to expression of the housekeeping gene HPRT1. Depicted is the mean of triplicate wells+/−SD.
(§2) FIGS. 6A-6B depicts a third screening round where further antisense oligonucleotides were designed. These antisense oligonucleotides were based on efficient antisense oligonucleotides from the first and second screening round. Therefore, hCD39 antisense oligonucleotides were tested in human cancer cell lines HDLM-2 (human Hodgkin's lymphoma) (FIG. 6A) and A-172 (human glioblastoma) (FIG. 6B). HDLM-2 and A-172 cells were treated for 3 days with 10 μM of the respective antisense oligonucleotide. […] Residual hCD39 mRNA expression relative to untreated cells (set as 1) is depicted.
(§3) In order to analyze the efficacy of hCD39 antisense oligonucleotides of the present invention with regard to the knockdown of hCD39 mRNA expression in cancer cell lines, HDLM-2 (human Hodgkin Lymphoma, DSMZ) and A-172 (human glioblastoma, ATCC) cells were treated with a single dose (concentration: 10 μM without addition of any transfection reagent; this process is called gymnotic delivery) of the respective antisense oligonucleotide as shown in FIG. 2A to 2D. hCD39 and HPRT1 mRNA expression was analyzed three days later using the QuantiGene Singleplex assay (Affymetrix) and hCD39 expression values were normalized to HPRT1 values. […] Values of the mean normalized mRNA expression of hCD39 compared to non-treated cells are listed for A-172 (Table 4 for first screening round and Table 5 for second screening round) and HDLM-2 cells (Table 6 for first screening round and Table 7 for second screening round) in the following:
(§4) For a third screening round, new antisense oligonucleotides were designed. These antisense oligonucleotides were based on efficient antisense oligonucleotides from the first screening round with modifications in length, exact position on mRNA and chemical modification pattern. Therefore, hCD39 antisense oligonucleotides were tested in human cancer cell lines (FIG. 6A, Table 10) HDLM-2 (human Hodgkin's lymphoma) and (FIG. 6B, Table 11) A-172 (human glioblastoma). HDLM-2 and A-172 cells were treated for 3 days with 10 μM of the respective antisense oligonucleotide. […] Residual hCD39 mRNA expression relative to untreated cells (set as 1) is depicted.

[3] = tested on: hCD39 mRNA; experiment: hCD39 mRNA knockdown efficacy screen in A-172 cells (single dose, gymnotic delivery, QuantiGene Singleplex); details: 10 μM, 3 days; for Mean hCD39 mRNA expression (relative to untreated cells set as 1): first screening round; for Mean hCD39 mRNA expression (relative to untreated cells set as 1) / Relative hCD39 mRNA expression (compared to non-treated cells): normalized to HPRT1; for Relative hCD39 mRNA expression (compared to non-treated cells): second screening round; for Residual hCD39 mRNA expression relative to untreated cells (set as 1): third screening round
Protocol: as §1, §2, §3, §4

[4] = third screening round (Table 12)

Substance	Mean hCD39 mRNA expression normalized to HPRT1 relative to untreated control = 1 [2]	Relative hCD39 mRNA expression (compared to non-treated cells) [2]	Residual hCD39 mRNA expression relative to untreated cells (set as 1) [2]	Mean hCD39 mRNA expression (relative to untreated cells set as 1) [3]	Relative hCD39 mRNA expression (compared to non-treated cells) [3]	Residual hCD39 mRNA expression relative to untreated cells (set as 1) [3]	other results
+T*+G*+C*C*A*G*A*G*T*G*C*C*T*G*+A*+T*+C (antisense TGCCAGAGTGCCTGATC; sugars from the 5' end l3 d11 l3, all phosphorothioate, methylation of C not given here) [A04042H]	0.10	*	0.09	0.37	0.19	0.00	mRNA inhibition ([1]; 0.0045 μM, Table 8): −20.02%; mRNA inhibition ([1]; 0.013 μM, Table 8): −2.65%; mRNA inhibition ([1]; 0.04 μM, Table 8): 22.51%; mRNA inhibition ([1]; 0.12 μM, Table 8): 32.44%; mRNA inhibition ([1]; 0.4 μM, Table 8): 58.07%; mRNA inhibition ([1]; 1.1 μM, Table 8): 76.38%; mRNA inhibition ([1]; 3.3 μM, Table 8): 87.12%; mRNA inhibition ([1]; 10 μM, Table 8): 95.87%; IC50 ([1]; first screening round (Table 8)): 60.9 nM
+G*+T*+T*T*G*T*G*T*G*A*G*A*G*C*+T*+T*+T (antisense GTTTGTGTGAGAGCTTT; sugars from the 5' end l3 d11 l3, all phosphorothioate, methylation of C not given here) [A04056H]			0.01			0.09	mRNA inhibition ([1]; 4 nM, Table 12): 13.97%; mRNA inhibition ([1]; 12 nM, Table 12): 37.12%; mRNA inhibition ([1]; 40 nM, Table 12): 69.95%; mRNA inhibition ([1]; 110 nM, Table 12): 91.83%; mRNA inhibition ([1]; 330 nM, Table 12): 97.52%; mRNA inhibition ([1]; 1000 nM, Table 12): 98.49%; IC50 [1, 4]: 20.2 nM
+G*+G*+T*T*T*G*T*G*T*G*A*G*A*G*C*+T*+T (antisense GGTTTGTGTGAGAGCTT; sugars from the 5' end l3 d12 l2, all phosphorothioate, methylation of C not given here) [A04059H]			0.01			0.09	mRNA inhibition ([1]; 0.45 nM, Table 12): 1.21%; mRNA inhibition ([1]; 1.3 nM, Table 12): 0.00%; mRNA inhibition ([1]; 4 nM, Table 12): 0.00%; mRNA inhibition ([1]; 12 nM, Table 12): 12.94%; mRNA inhibition ([1]; 40 nM, Table 12): 72.06%; mRNA inhibition ([1]; 110 nM, Table 12): 91.84%; mRNA inhibition ([1]; 330 nM, Table 12): 97.46%; mRNA inhibition ([1]; 1000 nM, Table 12): 98.31%; IC50 [1, 4]: 18.3 nM
+G*+T*+T*T*G*T*G*T*G*A*G*A*G*C*+T (antisense GTTTGTGTGAGAGCT; sugars from the 5' end l3 d11 l1, all phosphorothioate, methylation of C not given here) [A04061H]			0.01			0.10	mRNA inhibition ([1]; 4 nM, Table 12): 0.00%; mRNA inhibition ([1]; 12 nM, Table 12): 0.00%; mRNA inhibition ([1]; 40 nM, Table 12): 19.90%; mRNA inhibition ([1]; 110 nM, Table 12): 69.28%; mRNA inhibition ([1]; 330 nM, Table 12): 92.28%; mRNA inhibition ([1]; 1000 nM, Table 12): 97.43%; IC50 [1, 4]: 66.8 nM
+G*+A*G*T*A*C*A*A*C*T*G*A*+A*+C*+C (antisense GAGTACAACTGAACC; sugars from the 5' end l2 d10 l3, all phosphorothioate, methylation of C not given here) [A04018H]	0.12	0.12		0.19	0.20		
+A*+C*+T*A*T*G*C*T*G*A*A*C*C*A*+C*+C (antisense ACTATGCTGAACCACC; sugars from the 5' end l3 d11 l2, all phosphorothioate, methylation of C not given here) [A04022H]	0.09	0.09		0.14	0.15		
+A*+C*+G*T*T*C*A*C*T*A*C*C*T*T*+C*+T*+T (antisense ACGTTCACTACCTTCTT; sugars from the 5' end l3 d11 l3, all phosphorothioate, methylation of C not given here) [A04043H]	0.04	*		0.21	0.11		
+T*+T*+T*G*T*G*T*G*A*G*A*G*+C*+T*+T (antisense TTTGTGTGAGAGCTT; sugars from the 5' end l3 d9 l3, all phosphorothioate, methylation of C not given here) [A04058H]			0.01			0.25	
+C*+T*+C*C*A*G*C*G*T*A*A*G*+A*+T (antisense CTCCAGCGTAAGAT; sugars from the 5' end l3 d9 l2, all phosphorothioate, methylation of C not given here) [A04002H]		0.53			0.96		
+T*+T*+G*A*A*C*A*C*T*G*C*+G*+A*+T (antisense TTGAACACTGCGAT; sugars from the 5' end l3 d8 l3, all phosphorothioate, methylation of C not given here) [A04003H]	0.20	0.20		0.18	0.18		
+A*+A*+T*C*C*C*C*C*T*G*G*A*+G*+T*+G (antisense AATCCCCCTGGAGTG; sugars from the 5' end l3 d9 l3, all phosphorothioate, methylation of C not given here) [A04011H]	0.29	0.30			0.69		
